According to ChEMBL document CHEMBL5032511, “Improving Druggability of Novel Diarylpyrimidine NNRTIs by a Fragment-Based Replacement Strategy: From Biphenyl-DAPYs to Heteroaromatic-Biphenyl-DAPYs” (J Med Chem, 2021):

Key:
[1] = system: Human immunodeficiency virus 1; experiment: Anti-viral activity against HIV1 harboring RT E138K mutant infected […] cells assessed as protection against virus-induced cytopathic effect by MTT assay; format: functional, organism-based; settings: Human immunodeficiency virus 1, MT4
[2] = system: Human immunodeficiency virus 1; experiment: Anti-viral activity against HIV1 harboring RT Y188L mutant infected […] cells assessed as protection against virus-induced cytopathic effect by MTT assay; format: functional, organism-based; settings: Human immunodeficiency virus 1, MT4
[3] = system: Human immunodeficiency virus 1; experiment: Anti-viral activity against HIV1 harboring RT Y181C mutant infected […] cells assessed as protection against virus-induced cytopathic effect by MTT assay; format: functional, organism-based; settings: Human immunodeficiency virus 1, MT4
[4] = system: Human immunodeficiency virus 1; experiment: Anti-viral activity against HIV1 harboring RT K103N mutant infected […] cells assessed as protection against virus-induced cytopathic effect by MTT assay; format: functional, organism-based; settings: Human immunodeficiency virus 1, MT4
[5] = target: Human immunodeficiency virus type 1 reverse transcriptase (Human immunodeficiency virus 1, UniProt Q72547); experiment: Inhibition of recombinant wild-type HIV1 p66/p51 reverse transcriptase assessed as inhibition of [3H][…] incorporation using poly (rA) as templates incubated for 40 mins by spectrofluorometer
[6] = system: Human immunodeficiency virus 1; experiment: Anti-viral activity against HIV1 harboring RT L100I mutant infected […] cells assessed as protection against virus-induced cytopathic effect by MTT assay; format: functional, organism-based; settings: Human immunodeficiency virus 1, MT4
[7] = system: Human immunodeficiency virus 1; experiment: Antiviral activity against HIV1 IIIB infected human MT4 cells assessed as protection against virus-induced cytopathic effect by MTT assay; format: functional, organism-based; settings: Human immunodeficiency virus 1, IIIB
[8] = Cytotoxicity against mock infected human MT4 cells by MTT assay
[9] = Selectivity index, ratio of CC50 for mock infected human MT4 cells to IC50 for HIV1 IIIB infected human MT4 cells
[10] = Solubility of compound in PBS at pH 4.5 by HPLC-UV analysis; format: physicochemical
[11] = Stability in human liver microsome assessed as binding constant at 1 uM in presence of NADPH by LC/MS/MS analysis; settings: microsomes
[12] = Stability in rat liver microsome assessed as binding constant at 1 uM in presence of NADPH by LC/MS/MS analysis; settings: microsomes
[13] = Aqueous solubility of compound in PBS at pH 7 by HPLC-UV analysis
[14] = Aqueous solubility of compound in PBS at pH 7.4 by HPLC-UV analysis
[15] = Oral bioavailability in Sprague-Dawley rat at 5 mg/kg by LCMS analysis; format: ADME, organism-based; settings: in vivo
in vitro [16] = settings: rat, microsomes
in vitro [17] = settings: rat, microsomes; remark: listed apart in the source

SMILES | EC50 [1] [nM] | EC50 [2] [nM] | EC50 [3] [nM] | EC50 [4] [nM] | IC50 [5] [nM] | EC50 [6] [nM] | EC50 [7] [nM] | CC50 [8] [nM] | selectivity ratio [9] | other results
N#Cc1ccc(Nc2nccc(Nc3c(F)cc(-c4ccnc(Cl)c4)cc3F)n2)cc1 | 61 | > 1540 | 254 | 101 | 14 | 415 | 6.8 | 4200 | 622 | –
N#Cc1ccc(Nc2nccc(Nc3c(F)cc(-c4cccs4)cc3F)n2)cc1 | 11 | 1130 | 136 | 102 | 5.9 | 363 | 4.1 | > 308000 | > 74600 | –
N#Cc1ccc(Nc2nccc(Nc3c(F)cc(-c4cncnc4)cc3F)n2)cc1 | 137 | – | – | 326 | 87 | 1790 | 11.9 | 2700 | 229 | –
N#Cc1ccc(Nc2nccc(Nc3c(F)cc(-c4ccsc4)cc3F)n2)cc1 | 14 | 1040 | 212 | 171 | 11 | 301 | 3.9 | 55400 | 14000 | –
Cc1cc(-c2cc(F)c(Nc3ccnc(Nc4ccc(C#N)cc4)n3)c(F)c2)cc(C)n1 | – | – | – | – | 336 | – | 56 | 1200 | 21 | –
COc1cc(-c2cc(F)c(Nc3ccnc(Nc4ccc(C#N)cc4)n3)c(F)c2)ccn1 | 260 | – | 389 | 239 | 30 | 645 | 13 | 6700 | 501 | –
N#Cc1ccc(Nc2nccc(Nc3c(F)cc(-c4ccnc(Cl)c4Cl)cc3F)n2)cc1 | 39 | 1640 | 73 | 48 | 16 | 325 | 5.5 | 20000 | 3670 | –
O=c1c2nc([N+](=O)[O-])cn2ccn1Cc1ccccc1 | – | – | – | – | – | – | – | – | – | solubility ([10]; buffer): Insoluble
O=c1c2nc([N+](=O)[O-])cn2ccn1Cc1cccnc1 | – | – | – | – | – | – | – | – | – | solubility ([10]; PBS, read-out: solubility): > 200 µM
N#Cc1ccc(Nc2nccc(Nc3c(F)cc(-c4coc5ccccc45)cc3F)n2)cc1 | 335 | 6340 | 2750 | 1300 | 28 | 3450 | 44 | 87000 | 1990 | –
N#Cc1ccc(Nc2nccc(Nc3c(F)cc(-c4csc5ccccc45)cc3F)n2)cc1 | 601 | 7480 | 6210 | 5790 | 59 | 6450 | 124 | 16000 | 132 | –
O=C1Nc2ccc(Cl)cc2[C@@](C#CC2CC2)(C(F)(F)F)O1 [EFAVIRENZ] | 7.5 | 269 | – | – | – | – | – | > 6330 | – | –
N#Cc1ccc(Nc2nccc(Nc3c(F)cc(-c4ccncc4F)cc3F)n2)cc1 | 2.3 | 92 | 7 | 1.9 | 9.1 | 7.4 | 1.3 | 3300 | 2570 | –
N#Cc1ccc(Nc2nccc(Nc3c(F)cc(-c4cccnc4)cc3F)n2)cc1 | 149 | – | 473 | 223 | 58 | 583 | 7.4 | 242000 | 32700 | –
N#Cc1ccc(Nc2nccc(Nc3c(F)cc(-c4cc(Cl)nc(Cl)c4)cc3F)n2)cc1 | 311 | – | – | 1090 | 96 | – | 56 | 5400 | 97 | –
Cc1cc(C#Cc2ccccc2)cc(C)c1Oc1ccnc(Nc2ccc(C#N)cc2)n1 | – | – | – | – | – | – | 38 | – | – | –
Cc1cc(-c2ccc(C#N)cc2)cc(C)c1Nc1ccnc(Nc2ccc(C#N)cc2)n1 | – | – | – | – | – | – | 1 | 2100 | 2080 | K [11]: 0.047 min⁻¹; K [12]: 0.045 min⁻¹
Cc1cc(C#Cc2ccccn2)cc(C)c1Oc1ccnc(Nc2ccc(C#N)cc2)n1 | – | – | – | – | – | – | 3 | – | – | –

SMILES | EC50 [1] [nM] | EC50 [2] [nM] | EC50 [3] [nM] | EC50 [4] [nM] | IC50 [5] [nM] | EC50 [6] [nM] | EC50 [7] [nM] | CC50 [8] [nM] | selectivity ratio [9] | other results
Cc1cc(/C=C/C#N)cc(C)c1Nc1ccnc(Nc2ccc(C#N)cc2)n1 [RILPIVIRINE] | – | – | – | – | – | – | – | – | – | solubility ([13]; buffer): < 1 µg/mL; solubility ([14]; buffer): < 1 µg/mL
N#Cc1ccc(Nc2nccc(Nc3c(F)cc(-c4ccnc(F)c4F)cc3F)n2)cc1 | 13.5 | 1640 | 21.3 | 11.5 | 8.3 | 63 | 2 | > 286000 | > 147000 | –
N#Cc1ccc(Nc2nccc(Nc3c(F)cc(-c4ccco4)cc3F)n2)cc1 | 10 | 2170 | 84 | 71 | 10 | 86 | 2.1 | 16600 | 7910 | –
N#Cc1ccc(Nc2nccc(Nc3c(F)cc(-c4ccncc4)cc3F)n2)cc1 | 4 | 417 | 15 | 8 | 7.4 | 20.4 | – | – | – | –
N#Cc1ccc(Nc2nccc(Nc3c(F)cc(-c4cn[nH]c4)cc3F)n2)cc1 | 101 | – | – | 251 | 43 | – | 10 | 3100 | 298 | –
Cc1cc(C#N)cc(C)c1Oc1nc(Nc2ccc(C#N)cc2)nc(N)c1Br [ETRAVIRINE] | – | 29.3 | – | 3.4 | – | – | – | > 4600 | – | solubility ([13]; PBS): < 1 µg/mL; solubility ([14]; PBS): < 1 µg/mL
N#Cc1ccc(Nc2nccc(Nc3c(F)cc(-c4ccnc(F)c4)cc3F)n2)cc1 | 14.3 | 1260 | 80 | 42 | 11 | 397 | 3.8 | 5000 | 1310 | –
N#Cc1ccc(Nc2nccc(Nc3c(F)cc(-c4ccc(N)cc4)cc3F)n2)cc1 | 37 | 1180 | 482 | 144 | 37 | 561 | 9.2 | > 303000 | > 32900 | –
N#Cc1ccc(Nc2nccc(Nc3c(F)cc(-c4ccnc(C#N)c4F)cc3F)n2)cc1 | 11 | 18300 | 42 | 14 | 11 | 80 | 2 | > 282000 | > 143000 | –
N#Cc1ccc(Nc2nccc(Nc3c(F)cc(-c4ccoc4)cc3F)n2)cc1 | 13 | 2180 | 114 | 35 | 10 | 100 | 3.2 | 10600 | 3290 | –
Cc1cc(-c2cc(F)c(Nc3ccnc(Nc4ccc(C#N)cc4)n3)c(F)c2)ccn1 | 52 | 1090 | 144 | 77.7 | 29 | 383 | 4.1 | 3200 | 777 | –
N#Cc1ccc(Nc2nccc(Nc3c(F)cc(-c4cc(F)nc(F)c4)cc3F)n2)cc1 | 57 | – | 476 | 199 | 13 | 898 | 5.6 | 11000 | 1970 | –
N#Cc1ccc(Nc2nccc(Nc3c(F)cc(-c4ccc(C#N)cc4)cc3F)n2)cc1 | – | – | – | – | – | – | 1 | > 294000 | – | K [11]: 0.0219 min⁻¹; K [12]: 0.0157 min⁻¹; bioavailability [15]: 44%; half-life at 1 µM (in vitro [16]): 44.3 min; microsomal CLint at 1 µM (in vitro [17]): 15.7 µL/min/mg
N#Cc1ccc(Nc2nccc(Nc3c(F)cc(-c4ccnc(-c5ccnc(Cl)c5)c4)cc3F)n2)cc1 | 160 | – | 779 | 176 | 110 | 1150 | 16.8 | 51000 | 3070 | –
Cl.N#Cc1ccc(Nc2nccc(Nc3c(F)cc(-c4ccc(C#N)cc4)cc3F)n2)cc1 | – | – | – | – | – | – | – | – | – | solubility ([13]; PBS): 5.6 µg/mL
Cc1cc(/C=C/C#N)cc(C)c1Nc1ccnc(Nc2ccc(C#N)cc2)n1.Cl [RILPIVIRINE HYDROCHLORIDE] | – | – | – | – | – | – | – | – | – | bioavailability [15]: 32%
Cc1ccnc2c1NC(=O)c1cccnc1N2C1CC1 [NEVIRAPINE] | 288 | – | – | – | – | – | – | > 15000 | – | –
